Data taken from the supplement of paper PMC10307832.

Experiments:
Assay in all cases: relative viability (nuclei count vs DMSO), 5 days (fraction); higher = more cells survive
[1] = test system: NCI-H596
Procedure, shortened: (§1)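 Values are medians from duplicate plates. Each reflects relative viability, defined as the nuclei count of treated wells over that of vehicle wells. Lung cancer cell lines in 1536-well plates were pin-tool dosed one day after seeding with one drug alone or with a fixed anchor-drug dose plus five library-drug doses (not always all listed) in √10 steps, then fixed, stained and imaged at 4× after 5 days.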

[2] = test system: NCI-H1666
Procedure, shortened: as §1

[3] = test system: NCI-H661
Procedure, shortened: as §1

[4] = test system: IA-LM
Procedure, shortened: as §1

[5] = test system: NCI-H1944
Procedure, shortened: as §1

[6] = test system: SK-LU-1
Procedure, shortened: as §1

[7] = test system: PC-14
Procedure, shortened: as §1

[8] = test system: NCI-H1648
Procedure, shortened: as §1

[9] = test system: EBC-1
Procedure, shortened: as §1

[10] = test system: Calu-6
Procedure, shortened: as §1

[11] = test system: NCI-H1299
Procedure, shortened: as §1

[12] = test system: NCI-H1703
Procedure, shortened: as §1

[13] = test system: A549
Procedure, shortened: as §1

For CN1CCN(CCOc2cc(OC3CCOCC3)c3c(Nc4c(Cl)ccc5c4OCO5)ncnc3c2)CC1 [Saracatinib] + O=C(CCCCCCC(=O)Nc1ccccc1)NO [Vorinostat] (partner 1 µM), the relative viability ([1]; first compound 0.02 µM) was 0.568, the relative viability ([1]; first compound 0.2 µM) was 0.511 and the relative viability ([1]; first compound 0.6325 µM) was 0.585. It also gave a relative viability ([1]; first compound 2 µM) of 0.406, a relative viability ([2]; first compound 0.02 µM) of 0.988 and a relative viability ([2]; first compound 0.2 µM) of 0.914. The relative viability ([2]; first compound 0.6325 µM) was 1.12, the relative viability ([2]; first compound 2 µM) was 1.2 and the relative viability ([3]; first compound 0.02 µM) was 0.798. For the same compound, the relative viability ([3]; first compound 0.2 µM) was 0.808, the relative viability ([3]; first compound 0.6325 µM) was 0.81 and the relative viability ([3]; first compound 2 µM) was 0.693. The relative viability ([4]; first compound 0.02 µM) was 1.01, the relative viability ([4]; first compound 0.6325 µM) was 1.4 and the relative viability ([4]; first compound 2 µM) was 0.798. It also gave a relative viability ([5]; first compound 0.02 µM) of 0.54, a relative viability ([5]; first compound 0.2 µM) of 0.542 and a relative viability ([5]; first compound 0.6325 µM) of 0.509. It also gave a relative viability ([5]; first compound 2 µM) of 0.358, a relative viability ([6]; first compound 0.02 µM) of 0.758 and a relative viability ([6]; first compound 0.2 µM) of 0.657. It also gave a relative viability ([6]; first compound 0.6325 µM) of 0.657, a relative viability ([6]; first compound 2 µM) of 0.509 and a relative viability ([7]; first compound 0.02 µM) of 0.759. It also gave a relative viability ([7]; first compound 0.2 µM) of 0.247, a relative viability ([7]; first compound 0.6325 µM) of 0.163 and a relative viability ([7]; first compound 2 µM) of 0.0854. For the same compound, the relative viability ([8]; first compound 0.02 µM) was 0.338, the relative viability ([8]; first compound 0.2 µM) was 0.352 and the relative viability ([8]; first compound 0.6325 µM) was 0.782. The relative viability ([8]; first compound 2 µM) was 0.433.

CN1CCN(CCOc2cc(OC3CCOCC3)c3c(Nc4c(Cl)ccc5c4OCO5)ncnc3c2)CC1 [Saracatinib] + O=C(c1cc(Cc2n[nH]c(=O)c3ccccc23)ccc1F)N1CCN(C(=O)C2CC2)CC1 [Olaparib] (partner 8 µM) showed a relative viability ([1]; first compound 0.02 µM) of 0.727, a relative viability ([1]; first compound 0.2 µM) of 0.589 and a relative viability ([1]; first compound 0.6325 µM) of 0.684. It also gave a relative viability ([1]; first compound 2 µM) of 0.546, a relative viability ([9]; first compound 0.02 µM) of 0.701 and a relative viability ([9]; first compound 0.2 µM) of 0.709. The relative viability ([9]; first compound 0.6325 µM) was 0.729, the relative viability ([9]; first compound 2 µM) was 0.734 and the relative viability ([2]; first compound 0.02 µM) was 0.722. The relative viability ([2]; first compound 0.2 µM) was 0.696, the relative viability ([2]; first compound 0.6325 µM) was 0.974 and the relative viability ([2]; first compound 2 µM) was 0.995. For the same compound, the relative viability ([3]; first compound 0.02 µM) was 0.748, the relative viability ([3]; first compound 0.2 µM) was 0.625 and the relative viability ([3]; first compound 0.6325 µM) was 0.671. It also gave a relative viability ([3]; first compound 2 µM) of 0.59, a relative viability ([4]; first compound 0.02 µM) of 0.856 and a relative viability ([4]; first compound 0.2 µM) of 0.884. The relative viability ([4]; first compound 0.6325 µM) was 1.06, the relative viability ([4]; first compound 2 µM) was 0.76 and the relative viability ([10]; first compound 0.02 µM) was 0.53. The relative viability ([10]; first compound 0.2 µM) was 0.51, the relative viability ([10]; first compound 0.6325 µM) was 0.529 and the relative viability ([10]; first compound 2 µM) was 0.449. For the same compound, the relative viability ([11]; first compound 0.02 µM) was 0.923, the relative viability ([11]; first compound 0.2 µM) was 0.952 and the relative viability ([11]; first compound 0.6325 µM) was 1.12. The relative viability ([11]; first compound 2 µM) was 0.92, the relative viability ([5]; first compound 0.02 µM) was 0.406 and the relative viability ([5]; first compound 0.2 µM) was 0.344. The relative viability ([5]; first compound 0.6325 µM) was 0.44, the relative viability ([5]; first compound 2 µM) was 0.358 and the relative viability ([6]; first compound 0.02 µM) was 0.416. For the same compound, the relative viability ([6]; first compound 0.2 µM) was 0.359, the relative viability ([6]; first compound 0.6325 µM) was 0.33 and the relative viability ([6]; first compound 2 µM) was 0.28. The relative viability ([12]; first compound 0.02 µM) was 0.425, the relative viability ([12]; first compound 0.2 µM) was 0.393 and the relative viability ([12]; first compound 0.6325 µM) was 0.172. The relative viability ([12]; first compound 2 µM) was 0.158, the relative viability ([7]; first compound 0.02 µM) was 0.263 and the relative viability ([7]; first compound 0.2 µM) was 0.261. It also gave a relative viability ([7]; first compound 0.6325 µM) of 0.201, a relative viability ([7]; first compound 2 µM) of 0.117 and a relative viability ([8]; first compound 0.02 µM) of 0.882. The relative viability ([8]; first compound 0.2 µM) was 0.678, the relative viability ([8]; first compound 0.6325 µM) was 1.75 and the relative viability ([8]; first compound 2 µM) was 0.417. It also gave a relative viability ([13]; first compound 0.02 µM) of 0.338, a relative viability ([13]; first compound 0.2 µM) of 0.174 and a relative viability ([13]; first compound 0.6325 µM) of 0.341. For the same compound, the relative viability ([13]; first compound 2 µM) was 0.305.
